# Test results reported in patent publication US11033648B2, “Method, system and device for reducing microbial concentration and/or biofilm formation and/or reducing mineral and chemical concentrations to purify contaminated surfaces and substances” (EMODs Technology, L.L.C., priority 2019, dated 2021).
# Like-named read-outs stand apart in the source and are kept apart here.
# Legend:
# [1] = tested on: Staphylococcus epidermidis ATCC 12228; assay: Carrier test: H2O2 solutions treated with 400 to 420 nm light for 1 minute, applied to bacterial carriers after a dwell time; format: cell-based
# Protocol: The solutions were applied to the targets after the dwell times of 1 minute, 5 minutes, 10 minutes, 30 minutes, 1 hour, 12 hours, 24 hours, 2, days, 5 days, and 7 days. After 7 days of dwell time, all solutions were treated with light again for 1 minute, and a target was treated after 1 minute of dwell time.
# [2] = tested on: Desulfoviberio vulgaris Hildenborough (DvH); conditions: combined with radiation of 300 nm to 500 nm; in the presence of DvH, not replicated in sterile environment
# Protocol: In Example 1, carbon steel coupons were incubated in the presence of oxygen and, as the oxidizing agent compound, hydrogen peroxide, combined with radiation of certain wavelengths of 300 nm to 500 nm in a synergistic reaction, with and without an inoculum of DvH. The metal loss of the carbon steel coupons was measured.
# DvH = tested on: DvH
# Protocol: In example 2, steel coupons were incubated in cultures of DvH for three days with and without exposure to an oxidizing agent compound, specifically hydrogen peroxide, combined with radiation of certain wavelengths 300-500 nm in a synergistic reaction and then the coupons were measured to determine the amount of metal loss due to corrosion.
# [3] = 7 days*: reactivation with light of 400 to 420 nm for 1 minute, 1 minute dwell, control 9.80E+04
# [4] = 7 days*: reactivation with light of 400 to 420 nm for 1 minute, applied after 1 minute dwell time
# [5] = applied 1 min after solution exposed to light (400 to 420 nm, 1 minute)
# [6] = applied 1 min after solution exposed to light, control 6.04E+05 CFU per carrier
# [7] = applied 5 min after solution exposed to light
# [8] = applied 5 min after solution exposed to light, control 6.04E+05
# [9] = applied 10 min after solution exposed to light
# [10] = applied 10 min after solution exposed to light, control 6.04E+05
# [11] = applied 30 min after solution exposed to light
# [12] = applied 30 min after solution exposed to light, control 6.04E+05
# [13] = applied 1 hr after solution exposed to light
# [14] = applied 1 hr after solution exposed to light, control 6.04E+05
# [15] = applied 12 hr after solution exposed to light
# [16] = applied 12 hr after solution exposed to light, control 9.20E+04
# [17] = applied 24 hr after solution exposed to light
# [18] = applied 24 hr after solution exposed to light, control 1.33E+05
# [19] = applied 2 days after solution exposed to light
# [20] = applied 2 days after solution exposed to light, control 3.00E+05
# [21] = applied 5 days after solution exposed to light
# [22] = applied 5 days after solution exposed to light, control 4.50E+04
# [23] = applied 7 days after solution exposed to light
# [24] = applied 7 days after solution exposed to light, control 9.80E+04
SMILES,"% Reduction vs. Control [1, 3]","CFU per carrier [1, 4] [CFU per carrier]","CFU per carrier [1, 5] [CFU per carrier]","% Reduction vs. Control [1, 6] [%]","CFU per carrier [1, 7] [CFU per carrier]","% Reduction vs. Control [1, 8] [%]","CFU per carrier [1, 9] [CFU per carrier]","% Reduction vs. Control [1, 10] [%]","CFU per carrier [1, 11] [CFU per carrier]","% Reduction vs. Control [1, 12] [%]","CFU per carrier [1, 13] [CFU per carrier]","% Reduction vs. Control [1, 14] [%]","CFU per carrier [1, 15] [CFU per carrier]","% Reduction vs. Control [1, 16]","CFU per carrier [1, 17] [CFU per carrier]","% Reduction vs. Control [1, 18] [%]","CFU per carrier [1, 19] [CFU per carrier]","% Reduction vs. Control [1, 20] [%]","CFU per carrier [1, 21] [CFU per carrier]","% Reduction vs. Control [1, 22] [%]",further results
"OO [0.3% H2O2, hydrogen peroxide]",nr,1.03E+05,1.10E+04,98.18,3.00E+04,95.04,1.98E+05,67.24,7.00E+04,88.42,7.00E+04,88.42,1.27E+05,nr,1.40E+04,89.47,2.64E+05,12.00,4.40E+04,2.22,"CFU per carrier [1, 23]: 7.70E+04 CFU per carrier; % Reduction vs. Control [1, 24]: 21.43%"
"OO [3% H2O2, hydrogen peroxide]",89.80%,1.00E+04,7.00E+04,88.42,7.00E+04,88.42,3.10E+04,94.87,2.80E+04,95.37,7.10E+04,88.25,1.80E+04,80.43%,2.10E+04,84.21,9.00E+04,70.00,3.29E+03,92.69,"CFU per carrier [1, 23]: 1.50E+04 CFU per carrier; % Reduction vs. Control [1, 24]: 84.69%; microbes eliminated (microbes; 3% hydrogen peroxide together with radiation of 300 to 600 nanometers): 99.9999%; microbes eliminated (microbes; 3% solution alone, no radiation): approximately 30%"
OO [hydrogen peroxide],–,–,–,–,–,–,–,–,–,–,–,–,–,–,–,–,–,–,–,–,"effect on corrosion (weight loss) of carbon steel coupons [2]: reduce and/or eliminate corrosion in the presence of DvH; metal loss of coupons without treatment relative to coupons with treatment (DvH; 100 ppm (0.01%) hydrogen peroxide combined with radiation 300-500 nm, three days in DvH cultures): ~2 fold; corrosion of metal coupons (DvH; in the presence of hydrogen peroxide combined with radiation 300-500 nm, DvH cultures, three days): little to no corrosion"
